Experimental data published in US20130178475A1, “sGC STIMULATORS” (IRONWOOD PHARMACEUTICALS, INC., priority 2010, published 2013).

Assays:
[1] = molecular target: T1, soluble guanylate cyclase (sGC) (Homo sapiens, UniProt Q02108+Q02153); test: sGC-HEK-cGMP assay; assay type: cell-based; conditions: HEK293 cells, 10 min incubation, intracellular cGMP by LC/MS; for Increase in cGMP Concentration Tested at 10 μM in HEK Assay: test compound 10 μM; for Increase in cGMP Concentration Tested at 30 μM in HEK Assay: test compound 30 μM
T1 construct: endogenously expressing soluble guanylate cyclase (sGC); endogenous in cells; host or cells: HEK293
T1 sequence (Q02153 1-619): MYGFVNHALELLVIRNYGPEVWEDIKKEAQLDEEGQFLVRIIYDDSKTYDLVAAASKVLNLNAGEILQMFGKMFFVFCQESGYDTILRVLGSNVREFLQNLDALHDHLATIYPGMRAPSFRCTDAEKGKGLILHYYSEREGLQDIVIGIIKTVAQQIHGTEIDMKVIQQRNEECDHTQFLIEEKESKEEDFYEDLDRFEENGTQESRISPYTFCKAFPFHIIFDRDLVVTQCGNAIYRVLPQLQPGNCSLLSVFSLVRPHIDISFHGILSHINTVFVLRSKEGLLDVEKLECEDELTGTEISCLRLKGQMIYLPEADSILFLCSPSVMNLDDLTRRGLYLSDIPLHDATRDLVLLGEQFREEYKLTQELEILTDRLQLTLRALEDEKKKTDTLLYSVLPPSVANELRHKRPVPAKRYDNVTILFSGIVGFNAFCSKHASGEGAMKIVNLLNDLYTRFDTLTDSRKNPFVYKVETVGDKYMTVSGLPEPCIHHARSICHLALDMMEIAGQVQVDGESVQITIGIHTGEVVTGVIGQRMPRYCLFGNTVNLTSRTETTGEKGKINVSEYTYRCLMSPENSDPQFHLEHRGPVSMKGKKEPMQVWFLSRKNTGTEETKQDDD
T1 sequence (Q02108 1-690): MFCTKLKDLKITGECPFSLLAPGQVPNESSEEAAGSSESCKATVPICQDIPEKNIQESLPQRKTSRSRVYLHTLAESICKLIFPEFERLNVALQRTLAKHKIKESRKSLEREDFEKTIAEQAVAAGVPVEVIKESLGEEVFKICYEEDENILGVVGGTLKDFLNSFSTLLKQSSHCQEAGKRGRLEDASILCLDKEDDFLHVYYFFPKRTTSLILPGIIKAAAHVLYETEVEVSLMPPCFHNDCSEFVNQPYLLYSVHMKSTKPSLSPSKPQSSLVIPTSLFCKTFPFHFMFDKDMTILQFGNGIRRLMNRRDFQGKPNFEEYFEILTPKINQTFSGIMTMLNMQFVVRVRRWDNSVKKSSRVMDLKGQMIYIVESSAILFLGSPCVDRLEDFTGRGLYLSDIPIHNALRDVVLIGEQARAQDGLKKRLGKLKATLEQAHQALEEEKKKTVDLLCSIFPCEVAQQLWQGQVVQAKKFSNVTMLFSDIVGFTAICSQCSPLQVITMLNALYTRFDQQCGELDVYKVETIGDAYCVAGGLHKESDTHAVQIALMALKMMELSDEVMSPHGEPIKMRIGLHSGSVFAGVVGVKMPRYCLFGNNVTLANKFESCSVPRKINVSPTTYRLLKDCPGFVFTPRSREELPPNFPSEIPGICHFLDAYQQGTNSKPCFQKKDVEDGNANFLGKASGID
Experimental: Human embryonic kidney cells (HEK293), endogenously expressing soluble guanylate cyclase (sGC), were used to evaluate the activity of test compounds. Compounds stimulating the sGC receptor should cause an increase in the intracellular concentration of cGMP. […] Cells were then incubated for 15 minutes at 37° C. with 0.5 mM 3-isobutyl-1-methylxanthine (2004). Test article was then added to the assay mixture (2 μL) and incubated at 37° C. for 10 minutes. After the 10 minute incubation, the assay mixture was aspirated and 0.1M HCl (2004) was added to the cells. The plate was incubated at 4° C. for 30 minutes in the 0.1M HCl to stop the reaction and lyse the cells. The plates were then centrifuged at 1,200 g for 5 minutes at room temperature. Supernatants were collected and transferred to a new flat bottom 96 well plate for analysis. Vehicle controls were carried out using DMSO (1%). A known sGC stimulator, BAY 41-2272, was used as the positive control.
Samples were diluted with an equal volume of 1 M Ammonium Acetate (pH 7) to neutralize samples for better chromatography. A 2×cGMP standard curve was prepared in 0.1 M HCl and then diluted with an equal volume of 1 M Ammonium Acetate, with the following final concentrations in nM: 1024, 512, 256, 128, 64, 32, 16, 8, 4, 2, 1.
cGMP concentrations were determined from each sample using the LC/MS conditions (Table 2 below) and calculated standard curve. EC50 values were calculated from concentration-response curves generated with GraphPad Prism Software.

thoracic aortic rings = test: Thoracic aortic rings assay; conditions: relaxation of male Sprague-Dawley rat aortic rings contracted with 100 ng/mL phenylephrine; read-out: EC50, thoracic aortic ring assay activity
Experimental: Thoracic aortic rings were dissected from anesthetized (isoflurane) male Sprague-Dawley rats weighing 275-299 g. Tissues were immediately transferred to ice-cold Krebs-Henseleit solution, which had been aerated with 95% O2 and 5% CO2 for 30 minutes. Following removal of connective tissue, aortic sections were cut into 4 rings (˜2 mm each) and suspended on 2 L-shaped hooks, with one hook fixed at the bottom of the tissue bath (Schuler Organ Bath, Harvard Apparatus) and the other connected to a force transducer (F30 Force Transducer, Harvard Apparatus). Baths contained Krebs Henseleit solution (10 mL) heated to 37° C. and aerated with 95% O2 and 5% CO2. Rings were brought to an initial tension of 0.3-0.5 g and gradually raised to a resting tension of 1.0 g over 60 minutes. Rings were rinsed with Krebs Henseleit solution (heated to 37° C. and aerated with 95% O2 and 5% CO2) at 15 minute intervals until a stable baseline was obtained. Rings were considered to be stable after a resting tension of 1.0 g was maintained (for approximately 10 minutes) without need for adjustment. Rings were then contracted with 100 ng/mL phenylephrine by adding 100 uL of a […] phenylephrine stock solution. Tissues achieving a stable contraction were then treated in a cumulative, dose dependent manner with test compounds prepared in dimethylsulfoxide (DMSO). In some cases, tissues were rinsed three times over a 5 minute period with Krebs-Heinseleit's solution (heated to 37° C. and aerated with 95% O2 and 5% CO2), allowed to stabilize at baseline, and then used for characterization of other test articles or DMSO effects. All data were collected using the HSE-ACAD software provided by Harvard Apparatus. Percent relaxation effects were calculated in Microsoft Excel using the recorded tension value of 100 ng/mL phenylephrine treatment as 0% inhibition and treatment with 100 μM 3-isobutyl-1-methylxanthine as 100% inhibition. EC50 values were calculated from concentration-response curves generated with GraphPad Prism Software.

Structure (SMILES): Nc1ccnc(-c2nn(Cc3ccccc3F)c3c2CCCC3)n1 [Compound I-22]
- Increase in cGMP Concentration Tested at 10 μM in HEK Assay [1]: D (D represents an increase ranging from 20 fold to less than 50 fold)
- Increase in cGMP Concentration Tested at 30 μM in HEK Assay [1]: E (E represents an increase ranging from 50 fold to less than 100 fold)
- EC50 (thoracic aortic rings): 2 µM

Structure (SMILES): Nc1nc(-c2nn(Cc3ccccc3F)c3ncccc23)ncc1C1CC1 [Reference Cpd., BAY 41-2272, reference compound]
- EC50 (thoracic aortic rings): 0.34 to 0.95 µM

Structure (SMILES): COC(=O)N(C)c1c(N)nc(-c2nn(Cc3ccccc3F)c3c2CCC3)nc1N [Compound I-37]
- Increase in cGMP Concentration Tested at 10 μM in HEK Assay [1]: C (C represents an increase ranging from 10 fold to less than 20 fold)
- Increase in cGMP Concentration Tested at 30 μM in HEK Assay [1]: B (B represents an increase ranging from 5 fold to less than 10 fold)
- EC50 (thoracic aortic rings): 1.2 µM

Structure (SMILES): Nc1ccnc(-c2nn(Cc3ccccc3F)c3c2CCC3)n1 [Compound I-3]
- Increase in cGMP Concentration Tested at 10 μM in HEK Assay [1]: D (D represents an increase ranging from 20 fold to less than 50 fold)
- Increase in cGMP Concentration Tested at 30 μM in HEK Assay [1]: E (E represents an increase ranging from 50 fold to less than 100 fold)
- EC50 (thoracic aortic rings): 1.2 µM

Structure (SMILES): Fc1ccccc1Cn1nc(-c2ncccn2)c2c1CCCC2 [Compound I-1]
- Increase in cGMP Concentration Tested at 10 μM in HEK Assay [1]: D (D represents an increase ranging from 20 fold to less than 50 fold)
- Increase in cGMP Concentration Tested at 30 μM in HEK Assay [1]: D (D represents an increase ranging from 20 fold to less than 50 fold)
- EC50 (thoracic aortic rings): 1.3 µM

Structure (SMILES): N#Cc1cccc(Cn2nc(-c3ncccn3)c3c2CCCC3)c1 [Compound I-9]
- Increase in cGMP Concentration Tested at 10 μM in HEK Assay [1]: A (A represents no increase or an increase ranging from more than 0 fold to less than 5 fold)
- Increase in cGMP Concentration Tested at 30 μM in HEK Assay [1]: B (B represents an increase ranging from 5 fold to less than 10 fold)

Structure (SMILES): CC1(C)CC(=O)c2c(-c3ncccn3)nn(Cc3ccccc3F)c2C1 [Compound I-20]
- Increase in cGMP Concentration Tested at 10 μM in HEK Assay [1]: A (A represents no increase or an increase ranging from more than 0 fold to less than 5 fold)
- Increase in cGMP Concentration Tested at 30 μM in HEK Assay [1]: A (A represents no increase or an increase ranging from more than 0 fold to less than 5 fold)
